From patent EP4729518A1, “CRYSTAL FORM OF METHIONINE ADENOSYLTRANSFERASE 2A HETEROCYCLIC INHIBITOR, PREPARATION METHOD THEREFOR, AND USE THEREOF” (Nanjing Chia Tai Tianqing Pharmaceutical Co., Ltd., priority 2023, dated 2024)
Converted amounts (≈) assume the structure as drawn. Like-named read-outs stand apart in the source and are kept apart here.

Assays:
MAT2A enzyme = target: T1, MAT2A enzyme (Homo sapiens, UniProt P31153); test: MAT2A enzymatic assay (Biomol Green, OD620); assay type: biochemical
T1 construct: purchased BPS 71401
T1 sequence (P31153 whole entry): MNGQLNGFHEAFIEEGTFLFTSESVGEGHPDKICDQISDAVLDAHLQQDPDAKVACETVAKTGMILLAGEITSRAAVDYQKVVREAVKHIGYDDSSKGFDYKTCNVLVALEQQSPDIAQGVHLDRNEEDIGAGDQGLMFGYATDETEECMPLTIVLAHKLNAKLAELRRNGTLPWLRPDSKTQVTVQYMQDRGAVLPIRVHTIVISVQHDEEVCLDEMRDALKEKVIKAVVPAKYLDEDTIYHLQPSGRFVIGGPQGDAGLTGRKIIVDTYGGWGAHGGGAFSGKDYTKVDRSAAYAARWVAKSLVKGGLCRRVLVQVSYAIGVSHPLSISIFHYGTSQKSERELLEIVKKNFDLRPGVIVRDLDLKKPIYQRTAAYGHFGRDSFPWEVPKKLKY
Protocol: • a) First, a 5× MAT2A assay buffer (250 mM Tris-HCl, pH 8.0; 250 mM KCl; 75 mM MgCl2; 0.025% BSA; 0.05% Brij35; 1.5 mM EDTA) was prepared and partially diluted to 1× for later use. • b) Preparation and addition of MAT2A enzyme (BPS, 71401): The MAT2A enzyme was diluted to 3.674 ng/µL (1.67×, final concentration: 2.20 ng/µL) with the 1× MAT2A assay buffer. Using a BioTek (MultiFlo FX) automated dispenser, the 1.67× MAT2A enzyme solution was added to the compound test wells and negative control wells of a plate at 15 µL/well, and meanwhile, the 1× MAT2A assay buffer was added to the blank control wells at 15 µL/well. • c) Preparation and addition of compounds: The test compound was diluted from a 10 mM stock solution to 100 µM with DMSO, and the positive control drug AGI-24512 was diluted under the same conditions. Using a Tecan compound dispenser (D300e), the dilutions were automatically dispensed into each well according to a preset concentration gradient. The dispensed volume was minimal and considered negligible. The concentration gradient started at 1 µM (1/2 log dilution), and a total of 8 gradient points were set. The plate was centrifuged at 2500 rpm for 30 s and incubated at 25 °C for 30 min. • d) Preparation of ATP: 10 mM ATP (Sigma, A7699) was diluted to 700 µM with the 1× MAT2A assay buffer for later use. • e) Preparation and addition of mixed solution of substrate and ATP: A mixed solution was prepared containing the 5× MAT2A assay buffer (3 µL/well), 750 µM L-methionine (Adamas, 01100469) (2.5 µL/well), 700 µM ATP (2.5 µL/well), and double distilled water (2 µL/well). The total amount of the required mixed solution was prepared according to the number of detection wells. Using a BioTek (MultiFlo FX) automated dispenser, the mixed solution was added at 10 µL/well. The resulting mixture was centrifuged at 2500 rpm for 30 s and allowed to react at 25 °C for 150 min. • f) Addition of Biomol Green detection reagent: Using a BioTek (MultiFlo FX) automated dispenser, Biomol Green (Enzo, BML-AK111) was added at 50 µL/well. The plate was centrifuged at 2500 rpm for 30 s and incubated at 25 °C for 20 min. • g) After the reaction was completed, the OD620 values were measured using a Perkin Elmer (Envision 2105) multimode microplate reader.
The inhibition rate was calculated using the following formula: Inhibition rate % = (ODmax −ODsample)/(ODmax −ODmin) × 100% [formula] where: • ODsample represents the OD620 value of the sample well; • ODmin represents the mean OD620 value of the blank control wells containing no enzyme and no test compound; • ODmax represents the mean OD620 value of the negative control wells containing enzyme but no compound. […]

[1] = Dynamic solubility in buffers and water (HPLC, XRD of remaining solid); assay type: physicochemical; conditions: 37 °C; for solubility at 1 h / solubility at 4 h / solubility at 24 h: thermodynamic from solid, feed concentration 10 mg/mL
Protocol: 2.1. Hydrochloric acid solution at pH 1.0: A specified amount (9.00 mL) of hydrochloric acid was taken, diluted to 1000 mL with water, and shaken well to give the desired solution.
0.2 mol/L potassium dihydrogen phosphate solution: 27.22 g of potassium dihydrogen phosphate was taken, and dissolved and diluted to 1000 mL with water.
0.2 mol/L sodium hydroxide solution: 8.00 g of sodium hydroxide was taken, and dissolved and diluted to 1000 mL with water.
250 mL of a 0.2 mol/L potassium dihydrogen phosphate solution was taken and mixed with the specified amount of a 0.2 mol/L sodium hydroxide solution indicated in the table below. Then, the mixture was diluted to 1000 mL with water and shaken well to give the desired solution. Table 23: Phosphate buffer
Determination of the 1-, 4-, and 24-hour solubilities of the sample in four solvent systems (pH 1.0 buffer, pH 4.5 buffer, pH 6.8 buffer, and water) was conducted with a feed concentration of 10 mg/mL by shaking (400 rpm) at 37 °C. At each time point, a sample was taken, centrifuged (10000 rpm, 2 min), and filtered (through a 0.22 µm PTFE filter membrane, with the initial filtrate discarded). The HPLC concentration of the filtrate was then determined, and the remaining solid was subjected to XRD analysis. Table 30. Summary of dynamic solubility test results for crystal form G

[2] = Heating experiment via DSC followed by XRD; assay type: physicochemical; conditions: Heating temperature 110 °C
Description: The heated samples were then collected and subjected to XRD analysis. Table 27: Summary of heating test results for various crystal forms

[3] = Room-temperature solubility in solvents; assay type: physicochemical; conditions: thermodynamic from solid, read-out: Solubility S
Protocol: Determination of the solubility of the crystal form G was conducted in 20 selected solvents at room temperature. A sample (about 2 mg) was weighed and added to a 3-mL vial, and the corresponding solvent listed in Table 29 below was added (100 µL each time) until the solid was dissolved. If the solid was still not completely dissolved after 2 mL of the solvent was added, further addition was stopped. The solubility range in the corresponding solvent was calculated according to the mass of the sample and the volume of the solvent. Table 29: Solubility ranges of crystal form G at room temperature

## Cc1[nH]c2c(N3CCCCC3)c(-c3ccccc3)nn2c(=O)c1-c1ccc(O)cc1 [AGI-24512, reference compound]
MAT2A enzyme
  IC50: 26.8 nM

## Cn1cc2cc(-c3nn4ccc(C5CC5)nc4c(-c4ccc(OC(F)F)cc4)c3=O)ccc2n1 [Crystal form G, 2-cyclopropyl-9-[4-(difluoromethoxy)phenyl]-7-(2-methyl-2H-indazol-5-yl)-8H-pyrimido[1,2-b]pyridazin-8-one]
[1]; H2O, 1 h
  Crystal form change: Yes
[1]; H2O, 4 h
  Crystal form change: Yes
[1]; H2O, 24 h
  Crystal form change: Yes
[1]; pH 1.0, 1 h
  Crystal form change: Yes
[1]; pH 1.0, 4 h
  Crystal form change: Yes
[1]; pH 1.0, 24 h
  Crystal form change: Yes
[1]; pH 1.0 buffer, simulated gastric fluid, pH 1.0, 1 h
  solubility at 1 h: 0.32 µg/mL (≈ 0.696 µM)
[1]; pH 1.0 buffer, simulated gastric fluid, pH 1.0, 4 h
  solubility at 4 h: 0.16 µg/mL (≈ 0.348 µM)
[1]; pH 1.0 buffer, simulated gastric fluid, pH 1.0, 24 h
  solubility at 24 h: 0.12 µg/mL (≈ 0.261 µM)
[1]; pH 4.5, 1 h
  Crystal form change: Yes
[1]; pH 4.5, 4 h
  Crystal form change: Yes
[1]; pH 4.5, 24 h
  Crystal form change: Yes
[1]; pH 4.5 buffer, aqueous buffer, pH 4.5, 4 h
  solubility at 4 h: 0.07 µg/mL (≈ 0.152 µM)
[1]; pH 4.5 buffer, aqueous buffer, pH 4.5, 24 h
  solubility at 24 h: 0.08 µg/mL (≈ 0.174 µM)
[1]; pH 6.8, 1 h
  Crystal form change: Yes
[1]; pH 6.8, 4 h
  Crystal form change: Yes
[1]; pH 6.8, 24 h
  Crystal form change: Yes
[1]; pH 6.8 buffer, aqueous buffer, pH 6.8, 24 h
  solubility at 24 h: 0.06 µg/mL (≈ 0.131 µM)
[1]; water, H2O, 1 h
  solubility at 1 h: 0.13 µg/mL (≈ 0.283 µM)
[1]; water, H2O, 4 h
  solubility at 4 h: 0.09 µg/mL (≈ 0.196 µM)
[2]
  After heating (crystal form): Crystal form A
[3]; organic solvent or mixture, 1,4-Dioxane, room temperature
  solubility: 4800 to 6300 µg/mL (≈ 10400 to 13700 µM)
[3]; organic solvent or mixture, ACN, room temperature
  solubility: ~1100 µg/mL (≈ 2390 µM)
[3]; organic solvent or mixture, ACN/H2O (10:1), room temperature
  solubility: < 1100 µg/mL
[3]; organic solvent or mixture, Acetone, room temperature
  solubility: ~1000 µg/mL (≈ 2180 µM)
[3]; organic solvent or mixture, CHCl3, room temperature
  solubility: > 10500 µg/mL
[3]; organic solvent or mixture, DCM, room temperature
  solubility: 1900 to 2300 µg/mL (≈ 4140 to 5010 µM)
[3]; organic solvent or mixture, DMAc, room temperature
  solubility: > 40000 µg/mL
[3]; organic solvent or mixture, DMF, room temperature
  solubility: 21000 to 42000 µg/mL (≈ 45700 to 91400 µM)
[3]; organic solvent or mixture, DMSO, room temperature
  solubility: 9500 to 19000 µg/mL (≈ 20700 to 41400 µM)
[3]; organic solvent or mixture, EtOAc, room temperature
  solubility: 1100 to 2200 µg/mL (≈ 2390 to 4790 µM)
[3]; organic solvent or mixture, EtOH, room temperature
  solubility: ~1200 µg/mL (≈ 2610 µM)
[3]; organic solvent or mixture, IPA, room temperature
  solubility: ~1000 µg/mL (≈ 2180 µM)
[3]; organic solvent or mixture, IPAc, room temperature
  solubility: ~1100 µg/mL (≈ 2390 µM)
[3]; organic solvent or mixture, MEK, room temperature
  solubility: 5300 to 10500 µg/mL (≈ 11500 to 22900 µM)
[3]; organic solvent or mixture, MIBK, room temperature
  solubility: 2000 to 2500 µg/mL (≈ 4350 to 5440 µM)
[3]; organic solvent or mixture, MTBE, room temperature
  solubility: < 1100 µg/mL
[3]; organic solvent or mixture, MeOH, room temperature
  solubility: 3710 to 5500 µg/mL (≈ 8070 to 12000 µM)
[3]; organic solvent or mixture, MeOH/DCM (1:1), room temperature
  solubility: 5000 to 10000 µg/mL (≈ 10900 to 21800 µM)
[3]; organic solvent or mixture, THF, room temperature
  solubility: 7000 to 10500 µg/mL (≈ 15200 to 22900 µM)
[3]; water, H2O, room temperature
  solubility: < 1100 µg/mL
